In article PMC4830886, “Extended evaluation on the ES-D3 cell differentiation assay combined with the BeWo transport model, to predict relative developmental toxicity of triazole compounds” (Archives of Toxicology, 2015):

Assays:
[1] = WST-1 cytotoxicity assay with ES-D3 cells; type: cell-based; details: mouse, ES-D3 embryonic stem cells, WST-1, 5-day exposure, read-out: decline in cell viability
Experimental: (§1) The murine ES-D3 cell line was purchased from ATCC (Wesel, Germany). The cells were maintained in polystyrene cell culture flasks (Corning, The Netherlands) in Dulbecco’s modified Eagle’s medium (DMEM, Invitrogen, Breda, The Netherlands), supplemented with 20 % heat-inactivated fetal calf serum (Lonza, BioWhittaker, Verviers, Belgium), 50 U/ml penicillin with 50 μg/ml streptomycin (Invitrogen), 2 mM L-glutamine (Invitrogen), 0.1 mM β-mercaptoethanol (Sigma-Aldrich) and 1 % (v/v) nonessential amino acids (Invitrogen), at 37 °C and 5 % CO2 in a humidified atmosphere. Cells were kept undifferentiated with 1000 U/ml murine leukemia inhibiting factor (LIF) (Sigma-Aldrich) and subcultured every 2–3 days using nonenzymatic cell dissociation solution (Sigma-Aldrich) to detach the cells.
To determine cytotoxicity of the compounds, a WST-1 assay was performed. This assay measures the influence of test compounds on the formation of the water-soluble formazan reaction product from WST-1 by mitochondrial succinate-tetrazolium reductase enzymes. The cytotoxicity of a test compound inversely correlates with the absorbance of the produced formazan quantified spectrophotometrically as described previously (Reitsma et al. [2013]). ES-D3 cells were exposed to test compounds for the duration of 1 or 5 days as described before (Li et al. [2015]). Briefly, cells were seeded in 96-well plates (Greiner bio-one) at concentrations of 20 × 10^4 cells/ml (1-day exposure) or 1 × 10^4 cells/ml (5-day exposure) in 100 μl culture medium in the absence of LIF and incubated for 1 day to allow cell adherence. Then, the cells were exposed to the test compounds at concentrations up to 60 μM (final solvent concentration 0.2 % DMSO) and subsequently cultured for 1 or 5 days at 37 °C and 5 % CO2 in a humidified atmosphere. Solvent DMSO (0.2 %) was used as a negative control and 1 % Triton X-100 served as a positive control in all cytotoxicity assays. After incubation of 1 or 5 days, 20 μl WST-1 reagent (Roche, Woerden, The Netherlands) was added to each well and the plates were incubated for another 3 h. Then, absorbance was measured at 450 nm using a SpectraMax M2 (Molecular Devices, Sunnyvale, USA). Three wells were used per treatment in each independent experiment. Three independent experiments were done for each compound. The cell viability was expressed as % of the solvent control, with the solvent control set at 100 % viability. Reproducible results were obtained from the treatments of negative and positive controls in all of the cytotoxicity assays.

ES-D3 cells = test: ES-D3 cell differentiation assay (differentiation into contracting cardiomyocytes); type: cell-based, mouse; details: for Corrected BMCd50: BMCd50 divided by relative Papp value (BeWo model); for IC50: Mus musculus, Cardiomyocyte, 240 h, concentration for 50 % reduction in number of differentiated EBs, BMD modelling, day 10, read-out: BMCd50
Experimental: as §1
Differentiation assays were carried out to detect the effect of test compounds on the differentiation of ES-D3 cells into contracting cardiomyocytes using culture medium in the absence of LIF. On day 1, droplets of 20 μl cell suspension (3.75 × 10^4 cells/ml) were placed as hanging drops, to which the test compounds 0594, 0595, 0596, 0599, 0600 and 0618 were added at concentrations ranging from 0.2 to 60 μM (final solvent concentration 0.2 % DMSO), on the inner side of the lid of a 96-well plate. Sterile lids of Eppendorf tubes were placed on the corner wells of the plates to prevent contact of the drops with the plate. The wells of the 96-well plate were filled with 250 μl phosphate buffered saline (PBS) (Invitrogen), and the plate was sealed with Micropore tape (3M, Neuss, Germany) to prevent evaporation of the hanging drops. Plates were incubated for 3 days at 37 °C and 5 % CO2 in a humidified atmosphere. In the drops, cells formed embryonic bodies (EBs), which were transferred to nontissue culture-treated Petri dishes (diameter 6 cm, Greiner) with 5 ml of medium with test compound. On day 5, the EBs were transferred to a 24-well plate (Corning) with 1 ml of medium with test compound, with one EB per well. On day 10, the number of wells containing contracting EBs was determined by visual inspection using a light microscope. Solvent control (0.2 % DMSO in culture medium) was included in each experiment. The solvent control was also used to assess the quality of the batch of ES-D3 cells used in each individual test (cells being randomly distributed over test groups and solvent control). Tests were accepted for further analysis if at least 21 of the 24 wells of the solvent control contained contracting cardiomyocytes. For each test compound, three independent assays were performed. The results were expressed as “fraction of total,” with 1.0 implying all EBs in one 24-well plate differentiated into contracting cardiomyocytes.
Different dichotomous concentration–response models were fitted to the in vitro developmental toxicity data obtained from the ES-D3 cell differentiation assay to calculate benchmark concentrations (BMC) using Environmental Protection Agency benchmark dose (BMD) software version 2.4. For each test compound, the BMCd50, representing the concentration for a 50 % reduction in the number of differentiated EBs, was derived. Models included in the evaluation were the gamma, logistic, loglogistic, probit, logprobit, multistage, weibull and the quantal-linear model. […] The lowest BMCd50 value was chosen from the accepted models.
To combine in vitro developmental toxicity data obtained from the ES-D3 cell differentiation assay with placental transfer data obtained from the BeWo transport model, a corrected BMCd50 value was calculated by dividing the BMCd50 values by the relative Papp values, as described in Li et al. ([2015]).

SMILES | cytotoxicity at 5 days, 60 µM [1] [%] | Corrected BMCd50 (ES-D3 cells) [µM] | IC50 (ES-D3 cells) [µM]
OC(c1cccnc1)c1c(-c2ccc(F)cc2F)noc1-c1ccc(Cl)cc1F (stereo not drawn) [compound 0594, [5-(4-Chloro-2-fluoro-phenyl)-3-(2,4-difluoro-phenyl)-isoxazol-4-yl]-pyridin-3-yl-methanol] | 30 | 23.3 | 6.9
OC(c1cccnc1)c1c(-c2ccc(F)cc2F)csc1-c1ccc(F)cc1F (stereo not drawn) [compound 0595, [2,4-Bis-(2,4-difluoro-phenyl)-thiophen-3-yl]-pyridin-3-yl-methanol] | 20 | 141.8 | 11
CC(c1nc(-c2ccc(C#N)cc2)cs1)C(O)(Cn1cncn1)c1ccc(F)cc1 (stereo not drawn) [compound 0596, 4-{2-[2-(4-Fluoro-phenyl)-2-hydroxy-1-methyl-3-[1,2,4]triazol-1-yl-propyl]-thiazol-4-yl}-benzonitrile] | 70 | 18.1 | 11.4
CC(c1nc(-c2ccc(C#N)cc2)cs1)C(O)(Cn1ccnc1)c1ccc(F)cc1 (stereo not drawn) [compound 0599, 4-[2-[2-(4-Fluorophenyl)-2-hydroxy-3-imidazol-1-yl-1-methyl-propyl]thiazol-4-yl]benzonitrile] | 80 | 3.8 | 1.8
CC1CC(C)OC(Cn2cncn2)(c2ccc(Oc3ccc(Cl)cc3)cc2Cl)O1 (stereo not drawn) [compound 0600, 1-[[2-[2-Chloro-4-(4-chlorophenoxy)phenyl]-4,6-dimethyl-1,3-dioxan-2-yl]methyl]-1,2,4-triazole] | 20 | 21.0 | 4.2
